Patent publication US20070117203A1, “Modulation of stem and progenitor cell growth by oscillatory fluid flow” (priority 2005, published 2007)

System: Marrow Stromal Cells (MSCs)
Experiment: Intracellular calcium response of MSCs to oscillatory fluid flow in the presence of calcium channel blockers
Conditions: control 67.1±11.2
Description: Calcium Imaging: Intracellular levels of Ca^2+ were quantified using a ratiometric imaging technique with the Ca^2+ sensitive dye Fura-2 Acetoxymethyl ester (Fura-2 AM). […] The ratio of the emission intensities F340/F380 is a quantitative measurement of intracellular calcium [Ca^2+]i.
Cells were cultured on UV transparent quartz slides for 3 days. Prior to exposure to OFF, cells were washed with PBS, incubated with 10 μM Fura-2 AM in A-MEM and 2% FBS for 30 min at 37° C., and then washed again with PBS. Following Fura-2 loading, the slides were mounted in a parallel plate flow chamber, and then fixed to the stage of a Nikon TE300 epi-fluorescent microscope (Technical Instruments SF, Burlingame, Calif.). The setup was left undisturbed for 30 min, during which the cells were perfused with media at 0.05 ml/min. Cells were then subjected to 3 minutes of OFF at 1 Hz with peak shear stress of 20 dynes/cm^2. […] Ratio images were recorded and analyzed using image analysis software (Metafluor; Universal Imaging, West Chester, Pa.). […]
Data analysis: Calcium imaging data was analyzed using the Rainflow cycle counting numerical procedure. This method identifies oscillations in the time history data and is used to quantify [Ca^2+]i responses from background noise. Calcium imaging data is expressed as the fraction of cells responding i SE and mean change in [Ca^2+]i±SE. […]

SMILES	percentage of cells that responded to OFF with a change in intracellular calcium (50 nM, empties intracellular calcium stores, significant decrease (p<0.05)) [%]	percentage of cells that responded to OFF with a change in intracellular calcium (10 μM, stretch activated channel blocker, not different from control) [%]
C/C=C(/C)C(=O)O[C@H]1C(C)=C2[C@H]([C@@H]1OC(=O)CCCCCCC)[C@@](C)(OC(C)=O)C[C@H](OC(=O)CCC)[C@@]1(O)[C@H]2OC(=O)[C@@]1(C)O [Thapsigargin]	0±0	–
[Cl][Gd]([Cl])[Cl] [gadolinium chloride]	–	61.1±14.7
